Test results taken from article PMC11367644, “Structural basis for TNIP1 binding to FIP200 during mitophagy” (The Journal of Biological Chemistry, 2024).
Square brackets hold non-standard residues; d marks the D form. Peptide text beside a SMILES is read from it. pS = N[C@@H](COP(=O)(O)O)C(=O)O

Assays:
[1] = target: T1, FIP200 claw domain K1569A (Homo sapiens, UniProt Q8TDY2, K1569A); experiment: ITC with FIP200 claw domain mutant K1569A; conditions: 20 °C, buffer B pH 7.0, N.D. = no detectable binding
T1 construct: human FIP200 claw domain1490–1594 was cloned; SUMO (N, cleaved yes); made in house; host or cells: Escherichia coli Rosetta (DE3)
Method: (§1) DNA fragment of human FIP200 claw domain1490–1594 was cloned into a modified pET28a (Novagen) plasmid, which contained an N-terminal SUMO-tag and a ULP1 protease cleavage site. All mutants were generated using a MutanBEST Kit (TaKaRa) and confirmed by DNA sequencing. The proteins were expressed in Escherichia coli Rosetta (DE3) cells (Novagen) cultured in LB medium at 37 °C to A600 = 1.0 and then shifted to 16 °C for 24 h after induction with 0.2 mM IPTG. Bacterial pellets were resuspended in buffer A (50 mM NaH2PO4 and 1 M NaCl, pH 7.0) and lysed by sonication. The crude lysate was then centrifuged at 14,000 rpm for 30 min at 4 °C. The supernatant was applied to a Ni-NTA column (QIAGEN), followed by size-exclusion chromatography using a Superdex 200 (GE Healthcare) column. After cleavage with ULP1 protease overnight at 16 °C to remove the SUMO-tag, an additional purification step was performed with a HiTrap SP FF column. The purified protein was concentrated to ∼20 mg/ml in buffer B (50 mM NaH2PO4, 150 mM NaCl, pH 7.0) and stored at −80 °C.
(§2) ITC assays were performed on a Microcal PEAQ-ITC instrument (Malvern) at 20 °C. The concentrations of proteins were determined spectrophotometrically. […] Thermodynamic data were analyzed with a single binding site model using MicroCal PEAQ-ITC Analysis Software provided by the manufacturer (Malvern).

[2] = target: T2, FIP200 claw domain K1568E (Homo sapiens, UniProt Q8TDY2, K1568E); experiment: ITC with FIP200 claw domain mutant K1568E; conditions: 20 °C, buffer B pH 7.0, N.D. = no detectable binding
T2 construct: human FIP200 claw domain1490–1594 was cloned; SUMO (N, cleaved yes); made in house; host or cells: Escherichia coli Rosetta (DE3)
Method: as §1, §2

T2 sequence (Q8TDY2 1490-1594 K1568E): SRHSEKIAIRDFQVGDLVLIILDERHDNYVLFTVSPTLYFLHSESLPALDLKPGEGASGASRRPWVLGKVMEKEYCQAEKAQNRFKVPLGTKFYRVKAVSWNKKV
T1 sequence (Q8TDY2 1490-1594 K1569A): as the sequence (Q8TDY2 1490-1594 K1568E) above, with E79K, K80A counted along it

KD [1]: Weak binding
KD [2]: Weak binding
SMILES: CC(C)[C@H](NC(=O)[C@H](CCC(=O)O)NC(=O)[C@H](Cc1ccccc1)NC(=O)[C@H](CCC(=O)O)NC(=O)[C@H](COP(=O)(O)O)NC(=O)[C@H](CO)NC(=O)[C@@H](NC(=O)CNC(=O)[C@H](CO)NC(=O)[C@@H](N)CO)[C@@H](C)O)C(=O)N[C@H](C(=O)N[C@H](C(=O)N1CCC[C@H]1C(=O)N[C@@H](CCC(=O)O)C(=O)N[C@@H](CCC(=O)O)C(=O)N[C@@H](CCC(N)=O)C(=O)O)[C@@H](C)O)C(C)C [TNIP1_pS123^ long] (H-SSGTS[pS]EFEVVTPEEQ-OH)
